# Laboratory results reported in article PMC9564337, “Development of a Neurotensin-Derived ^68Ga-Labeled PET Ligand with High In Vivo Stability for Imaging of NTS1 Receptor-Expressing Tumors” (Cancers, 2022).
# Read-outs that look alike come from different tables or passages of the source. Marks after values point to notes of the source that are not given here.
# Key:
# hNTS1R [1] = molecular target: T1, hNTS1R (Homo sapiens, UniProt P30989); conditions: HT-29 cells, cited from earlier work
# T1 construct: intact HT-29 colon carcinoma cells expressing the hNTS1R; host or cells: HT-29 human colon carcinoma cells
# [2] = human plasma, 37 °C, cited from earlier work
# hNTS2R = hNTS2R (Homo sapiens, UniProt O95665); assay: radioligand competition binding with [3H]UR-MK300 at intact HEK293T-hNTS2R cells; conditions: [3H]UR-MK300 c = 10 nM
# Description: Two days prior to the experiment, white 96-well plates with clear bottoms (Costar, catalog no. 3610) were treated with poly-D-lysine hydrobromide (Sigma-Aldrich) for 10 min. The wells were washed with H2O and the plates were dried on air at rt overnight. […] After removal of the glutaraldehyde solution, the wells were washed twelve times with H2O and two times with culture medium (150–300 µL). […] On the day of the experiment, the culture medium was carefully removed using a multi-channel pipette (Transferpette S-12, Brand, Wertheim, Germany) and the cells were washed once with Dulbecco’s phosphate-buffered saline (D-PBS) containing Ca^2+ and Mg^2+ (1.8 mM CaCl2, 2.68 mM KCl, 1.47 mM KH2PO4, 3.98 mM MgSO4, 136.9 mM NaCl and 8.06 mM Na2HPO4) (200 μL, rt) followed by the careful pre-filling of the wells with 180 µL (total binding) or 160 µL (unspecific and competition binding) of D-PBS, supplemented with 1% BSA and 100 μg/mL bacitracin (Serva, Heidelberg, Germany) (in the following referred to as binding buffer). To determine total binding, 20 µL of a solution of the radioligand in binding buffer (10-fold concentrated compared to the final concentration) were added. […] To determine the displacing effect of a compound of interest, 20 µL of a solution of the respective compound in binding buffer (10-fold concentrated) and 20 µL of a 10-fold concentrated solution of the radioligand in binding buffer were added. During the incubation period of 2 h at 23 °C, the plates were gently shaken. […] The plates were sealed with a transparent sealing tape (permanent seal for microplates, PerkinElmer, product no. 1450–461) and turned upside down several times to achieve complete mixing. Prior to the measurement of the radioactivity with a MicroBeta2 plate counter (PerkinElmer), the plates were kept in the dark for at least 1 h. All experiments were performed in triplicate.
# hNTS1R [3] = molecular target: T1, hNTS1R; assay: radioligand competition binding with [3H]UR-MK300 at intact HT-29 cells
# hNTS1R [4] = molecular target: T1, hNTS1R; assay: fura-2 Ca2+-assay on intact HT-29 cells; type: cell-based; conditions: maximal response comparable to that of 1
# Description: The fura-2 calcium assay on intact hNTS1R-expressing HT-29 cells was performed as previously described for human erythroleukemia cells using a Perkin-Elmer LS50 B spectrofluorimeter (PerkinElmer, Rodgau, Germany). At a confluency of 80–95%, cells were trypsinized, detached from the culture flask and the assay was performed as described in the protocol.
# in vitro = in vitro ADME; conditions: human
# [5] = read-out: Ki [nM] NTS2R (converted)
# [6] = read-out: pKi ± SD NTS2R (converted)
# [7] = ref Schindler et al. [3] of the supplement (= [60])
# T1 sequence (P30989 whole entry): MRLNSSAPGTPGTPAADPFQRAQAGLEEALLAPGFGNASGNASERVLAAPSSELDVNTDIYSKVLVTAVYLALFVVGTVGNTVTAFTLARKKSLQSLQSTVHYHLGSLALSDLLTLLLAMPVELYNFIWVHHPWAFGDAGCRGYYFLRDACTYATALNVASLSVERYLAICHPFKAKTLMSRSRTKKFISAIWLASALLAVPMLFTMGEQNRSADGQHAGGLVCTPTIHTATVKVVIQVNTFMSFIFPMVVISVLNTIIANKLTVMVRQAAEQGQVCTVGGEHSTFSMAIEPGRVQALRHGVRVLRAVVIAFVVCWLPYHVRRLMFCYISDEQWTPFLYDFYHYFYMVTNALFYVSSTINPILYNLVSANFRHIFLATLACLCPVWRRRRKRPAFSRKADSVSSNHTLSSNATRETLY
# Chain of hNTS2R (O95665 whole entry): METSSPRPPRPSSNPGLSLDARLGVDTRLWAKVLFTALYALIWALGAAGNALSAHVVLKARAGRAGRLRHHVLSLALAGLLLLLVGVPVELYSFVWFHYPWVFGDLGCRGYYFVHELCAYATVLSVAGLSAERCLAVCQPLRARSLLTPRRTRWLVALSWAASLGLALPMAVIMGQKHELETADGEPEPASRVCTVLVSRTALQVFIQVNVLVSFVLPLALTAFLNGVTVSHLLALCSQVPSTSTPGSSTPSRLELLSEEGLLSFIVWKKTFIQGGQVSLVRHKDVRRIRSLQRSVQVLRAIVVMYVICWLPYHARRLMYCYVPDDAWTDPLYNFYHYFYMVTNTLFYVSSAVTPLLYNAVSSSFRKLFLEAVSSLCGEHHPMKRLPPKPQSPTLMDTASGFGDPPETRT
compound,measurement,setting,value
"CN[C@@H](CCCNC(=N)N)C(=O)N[C@@H](CCCNC(=N)N)C(=O)N1CCC[C@H]1C(=O)N[C@@H](Cc1ccc(O)cc1)C(=O)N[C@H](C(=O)N[C@@H](CC(C)C)C(=O)O)C(C)(C)C [Compound 3, reference compound]",pKi NTS1R,hNTS1R [1]; ref Schindler et al. [40],9.07
same,% Intact Peptide in Plasma after 1 h,[2]; ref Schindler et al. [40],>99 ^d %
same,% Intact Peptide in Plasma after 6 h,[2]; ref Schindler et al. [40],>99 ^d %
same,% Intact Peptide in Plasma after 24 h,[2]; ref Schindler et al. [40],98 ^d %
same,% Intact Peptide in Plasma after 48 h,[2]; ref Schindler et al. [40],87 ^d %
same,Ki,hNTS2R; [5],9.9 nM
same,Ki,hNTS2R; [6],9.77 nM
same,NTS1R Selectivity (Ratio Ki (NTS2R)/Ki (NTS1R)),hNTS1R [3],11
CN[C@@H](CCCNC(N)=NC(=O)NCCCCN)C(=O)N[C@@H](CCCNC(=N)N)C(=O)N1CCC[C@H]1C(=O)N[C@@H](Cc1ccc(O)cc1)C(=O)N[C@H](C(=O)N[C@@H](CC(C)C)C(=O)O)C(C)(C)C [Compound 10],pKi NTS1R,hNTS1R [1]; [7],8.55
same,Ki,"hNTS1R [1]; ref Schindler et al. [3] of the supplement (= [60]), read-out: Ki [nM] NTS1R",2.8 nM
same,% Intact Peptide in Plasma after 1 h,[2]; [7],> 99%
same,% Intact Peptide in Plasma after 6 h,[2]; [7],> 99%
same,% Intact Peptide in Plasma after 24 h,[2]; [7],> 99%
same,% Intact Peptide in Plasma after 48 h,[2]; [7],> 99%
same,Ki,hNTS2R; [5],19 nM
same,Ki,hNTS2R; [6],19.1 nM
same,NTS1R Selectivity (Ratio Ki (NTS2R)/Ki (NTS1R)),hNTS1R [3],6.8
CN[C@@H](CCCNC(N)=NC(=O)NCCCCNC(=O)CN1CCN(CC(=O)O)CCN(CC(=O)O)CCN(CC(=O)O)CC1)C(=O)N[C@@H](CCCNC(=N)N)C(=O)N1CCC[C@H]1C(=O)N[C@@H](Cc1ccc(O)cc1)C(=O)N[C@H](C(=O)N[C@@H](CC(C)C)C(=O)O)C(C)(C)C [Compound 21],agonistic activity at the Gq-coupled NTS1R,hNTS1R [4],full agonists
same,% Intact Peptide in Plasma after 24 h,"in vitro; 24 h, 100 µM, pH 7.4",26 ± 1%
same,% Intact Peptide in Plasma after 48 h,"in vitro; 48 h, 100 µM, pH 7.4",4.1 ± 0.1%
same,"remaining at 1 h, 100 µM","in vitro; plasma, pH 7.4, % Intact Peptide in Plasma after 1 h",> 99%
same,"remaining at 6 h, 100 µM","in vitro; plasma, pH 7.4, % Intact Peptide in Plasma after 6 h",> 99%
same,pKi ± SD NTS2R,hNTS2R,7.25 ± 0.15
same,Ki,hNTS2R; [5],59 nM
same,NTS1R Selectivity (Ratio Ki (NTS2R)/Ki (NTS1R)),hNTS1R [3],6.0
same,pKi ± SD NTS1R,"hNTS1R [3]; [3H]UR-MK300 c = 1 nM, HT-29 cells, 23 °C",8.01 ± 0.08
same,Ki,"hNTS1R [3]; [3H]UR-MK300 c = 1 nM, HT-29 cells, 23 °C, read-out: Ki [nM] NTS1R (converted)",9.9 nM
